Experimental data as given in article PMC12823633 (Cancer Chemotherapy and Pharmacology, 2026).
Like-named read-outs stand apart in the source and are kept apart here.

Columns and labels:
[1] = system: CYP3A4; details: 1’-hydroxymidazolam
[2] = Adverse events, DDI evaluation period; type: in vivo, human (patients with solid tumors)
[3] = target: CYP2C9 (Homo sapiens, UniProt P11712); test: clinical; details: plasma, oral, 25 mg
[4] = midazolam 2.5 mg alone (Day −2)
[5] = midazolam 2.5 mg with TAS-115 250 mg once daily (Day 5)
[6] = After Administration of TAS-115, DDI period (N=18)
[7] = Before Administration of TAS-115 (N=18)
[8] = Entire DDI Evaluation Period (N=18)

Chain of CYP2C9 (P11712 whole entry): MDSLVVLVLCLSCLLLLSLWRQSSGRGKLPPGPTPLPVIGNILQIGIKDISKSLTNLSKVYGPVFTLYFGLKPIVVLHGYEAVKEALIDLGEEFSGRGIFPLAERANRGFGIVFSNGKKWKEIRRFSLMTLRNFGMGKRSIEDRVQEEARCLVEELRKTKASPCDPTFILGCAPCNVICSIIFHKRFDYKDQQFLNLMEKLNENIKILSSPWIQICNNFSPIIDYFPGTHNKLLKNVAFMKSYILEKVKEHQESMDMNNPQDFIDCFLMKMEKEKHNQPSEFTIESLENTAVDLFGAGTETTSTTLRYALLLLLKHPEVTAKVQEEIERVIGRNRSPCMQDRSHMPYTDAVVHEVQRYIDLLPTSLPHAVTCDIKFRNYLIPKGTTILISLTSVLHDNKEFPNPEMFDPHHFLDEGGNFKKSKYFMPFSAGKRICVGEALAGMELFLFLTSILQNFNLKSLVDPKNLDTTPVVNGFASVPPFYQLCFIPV

Row | SMILES | AUCinf, Geometric LSM [1, 4] | AUClast, Geometric LSM [1, 4] | Cmax, Geometric LSM [1, 4] | AUCinf, Geometric LSM [1, 5] | AUClast, Geometric LSM [1, 5] | Cmax, Geometric LSM [1, 5] | Any >=Grade 3 TRAEs Related to Losartan [2, 6] | Any TRAEs Related to Losartan [2, 6] | Any >=Grade 3 TRAEs Related to Losartan [2, 7] | Any TRAEs Related to Losartan [2, 7] | TRAE (Grade 1 hypotension) related to losartan ([2]; DDI evaluation period, losartan administered after TAS-115) | Any >=Grade 3 TRAEs Related to Losartan [2, 8] | Any TRAEs Related to Losartan [2, 8] | AUC(0-inf) [3] | AUC(0-t) [3] | Cmax [3]
1 | OCc1ncc2n1-c1ccc(Cl)cc1C(c1ccccc1F)=NC2 [1’-Hydroxymidazolam, 1’-hydroxymidazolam] | 0.01992 µg·h/mL | 0.01933 µg·h/mL | 0.008195 µg/mL | 0.02086 µg·h/mL | 0.02013 µg·h/mL | 0.008391 µg/mL |  |  |  |  |  |  |  |  |  | 
2 | CCCCc1nc(Cl)c(CO)n1Cc1ccc(-c2ccccc2-c2nn[nH]n2)cc1 [Losartan, losartan, reference compound] |  |  |  |  |  |  | 0 (0.0) N (%) | 1 (5.6) N (%) | 0 (0.0) N (%) | 0 (0.0) N (%) | one patient | 0 (0.0) N (%) | 1 (5.6) N (%) | 0.388 µg·h/mL | 0.364 µg·h/mL | 0.159 µg/mL
